Patent US10221177B2 (HYDRA BIOSCIENCES, INC., priority 2014, dated 2019)

Target: human TRPA1 (Homo sapiens (Human), UniProt O75762)
Test: In vitro inhibition of human TRPA1, whole cell patch configuration
Assay type: cell-based
Conditions: current activation 10 μM AITC, tested concentrations 320 pM to 3.2 μM, read-out: hTRPA1 IC50
How it was run: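 Whole-cell patch clamp, bath 150 mM NaCl, 10 mM HEPES, 1 mM EGTA, 3 mM MgCl2, pH 7.4 (sometimes 2 mM CaCl2, 1 mM MgCl2). Currents recorded continuously at −60 mV or by 400 ms ramps from −40 mV holding every 4 s; inward/outward currents taken at −80/80 mV, with controlled-temperature focal perfusion.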

human TRPA1, sequence (O75762 whole entry): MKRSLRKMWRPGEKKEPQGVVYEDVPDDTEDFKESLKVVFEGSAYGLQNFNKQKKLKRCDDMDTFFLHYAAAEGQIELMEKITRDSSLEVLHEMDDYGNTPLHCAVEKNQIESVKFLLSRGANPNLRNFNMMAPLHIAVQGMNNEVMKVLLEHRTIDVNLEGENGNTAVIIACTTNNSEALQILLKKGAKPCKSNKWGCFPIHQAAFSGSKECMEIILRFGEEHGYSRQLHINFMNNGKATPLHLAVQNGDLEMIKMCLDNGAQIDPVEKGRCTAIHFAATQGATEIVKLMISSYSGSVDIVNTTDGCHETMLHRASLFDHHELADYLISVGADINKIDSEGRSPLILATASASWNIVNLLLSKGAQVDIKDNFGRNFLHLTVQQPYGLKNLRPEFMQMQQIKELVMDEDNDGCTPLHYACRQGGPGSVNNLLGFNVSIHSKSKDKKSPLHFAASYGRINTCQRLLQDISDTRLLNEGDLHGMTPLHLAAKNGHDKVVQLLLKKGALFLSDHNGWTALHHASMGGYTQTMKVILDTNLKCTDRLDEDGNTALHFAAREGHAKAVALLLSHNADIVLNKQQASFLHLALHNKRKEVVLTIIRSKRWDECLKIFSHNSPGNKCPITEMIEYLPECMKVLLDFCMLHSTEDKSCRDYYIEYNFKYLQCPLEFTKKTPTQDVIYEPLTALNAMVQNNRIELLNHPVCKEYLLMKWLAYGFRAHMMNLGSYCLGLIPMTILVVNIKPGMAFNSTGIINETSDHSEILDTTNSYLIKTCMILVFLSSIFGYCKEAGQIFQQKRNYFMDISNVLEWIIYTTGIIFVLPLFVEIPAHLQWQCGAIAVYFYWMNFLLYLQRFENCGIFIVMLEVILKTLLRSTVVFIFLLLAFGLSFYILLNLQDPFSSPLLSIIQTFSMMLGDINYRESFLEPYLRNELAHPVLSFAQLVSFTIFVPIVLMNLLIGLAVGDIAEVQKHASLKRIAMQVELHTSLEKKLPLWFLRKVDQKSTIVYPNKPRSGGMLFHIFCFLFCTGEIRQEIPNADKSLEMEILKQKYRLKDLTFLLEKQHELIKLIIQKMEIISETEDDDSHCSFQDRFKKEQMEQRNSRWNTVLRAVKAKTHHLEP

SMILES | IC50 [nM]
Cc1nc(Cn2c(=O)c3c(ncn3[C@@H](C)C(=O)Nc3cccc(-c4cnc(C(F)(F)F)nc4)n3)n(C)c2=O)no1 [Compound 171, (S)-2-(3-methyl-1-((5-methyl-1,2,4-oxadiazol-3-yl)methyl)-2,6-dioxo-2,3-dihydro-1H-purin-7(6H)-yl)-N-(6-(2-(trifluoromethyl)pyrimidin-5-yl)pyridin-2-yl)propanamide] | 23
CC(=O)Cn1c(=O)c2c(ncn2CC(=O)Nc2cccc(-c3cnc(C(F)(F)F)c(C)c3)n2)n(C)c1=O [Compound 227, 2-(3-methyl-2,6-dioxo-1-(2-oxopropyl)-2,3-dihydro-1H-purin-7(6H)-yl)-N-(5′-methyl-6′-(trifluoromethyl)-[2,3′-bipyridin]-6-yl)acetamide] | 22
Cc1noc(Cn2c(=O)c3c(ncn3[C@@H](C)C(=O)Nc3cncc(-c4cnc(C(F)(F)F)c(C)c4)n3)n(C)c2=O)n1 [Compound 133, (S)-2-(3-methyl-1-((3-methyl-1,2,4-oxadiazol-5-yl)methyl)-2,6-dioxo-2,3-dihydro-1H-purin-7(6H)-yl)-N-(6-(5-methyl-6-(trifluoromethyl)pyridin-3-yl)pyrazin-2-yl)propanamide] | 9
Cc1cc(Cn2c(=O)c3c(ncn3[C@@H](C)C(=O)Nc3cncc(-c4cnc(N5CCC[C@H]5C(F)(F)F)nc4)n3)n(C)c2=O)no1 [Compound 96, (S)-2-(3-methyl-1-((5-methylisoxazol-3-yl)methyl)-2,6-dioxo-2,3-dihydro-1H-purin-7(6H)-yl)-N-(6-(2-((S)-2-(trifluoromethyl)pyrrolidin-1-yl)pyrimidin-5-yl)pyrazin-2-yl)propanamide] | 2
Cc1cc(Cn2c(=O)c3c(ncn3CC(=O)Nc3cccc(-c4cnc(C(F)(F)F)c(C)c4)n3)n(C)c2=O)no1 [Compound 221, 2-(3-methyl-1-((5-methylisoxazol-3-yl)methyl)-2,6-dioxo-2,3-dihydro-1H-purin-7(6H)-yl)-N-(5′-methyl-6′-(trifluoromethyl)-[2,3′-bipyridin]-6-yl)acetamide] | 5
COCC(=O)Cn1c(=O)c2c(ncn2CC(=O)Nc2csc(-c3cnc(C)c(C(F)(F)F)c3)n2)n(C)c1=O [Compound 254, 2-(1-(3-methoxy-2-oxopropyl)-3-methyl-2,6-dioxo-2,3-dihydro-1H-purin-7(6H)-yl)-N-(2-(6-methyl-5-(trifluoromethyl)pyridin-3-yl)thiazol-4-yl)acetamide] | 14
Cc1nc2c(c(=O)n(Cc3ccccn3)c(=O)n2C)n1CC(=O)Nc1cccc(-c2ccc(Cl)cc2)n1 [Compound 174, N-(6-(4-chlorophenyl)pyridin-2-yl)-2-(3,8-dimethyl-2,6-dioxo-1-(pyridin-2-ylmethyl)-2,3-dihydro-1H-purin-7(6H)-yl)acetamide] | 24
CC(=O)Cn1c(=O)c2c(ncn2[C@@H](C)C(=O)Nc2csc(-c3cnc(C)c(C(F)(F)F)c3)n2)n(C)c1=O [Compound 98, (S)-2-(3-methyl-2,6-dioxo-1-(2-oxopropyl)-2,3-dihydro-1H-purin-7(6H)-yl)-N-(2-(6-methyl-5-(trifluoromethyl)pyridin-3-yl)thiazol-4-yl)propanamide] | 3
Cc1cc(Cn2c(=O)c3c(ncn3[C@@H](C)C(=O)Nc3cccc(-c4cnc(N5CCC[C@H]5C(F)(F)F)nc4)n3)n(C)c2=O)no1 [Compound 115, (S)-2-(3-methyl-1-((5-methylisoxazol-3-yl)methyl)-2,6-dioxo-2,3-dihydro-1H-purin-7(6H)-yl)-N-(6-(2-((S)-2-(trifluoromethyl)pyrrolidin-1-yl)pyrimidin-5-yl)pyridin-2-yl)propanamide] | 1
CCC(=O)Cn1c(=O)c2c(ncn2[C@@H](C)C(=O)Nc2csc(-c3cnc(C)c(Cl)c3)n2)n(C)c1=O [Compound 90] | 3
CC(=O)Cn1c(=O)c2c(ncn2[C@@H](C)C(=O)Nc2cccc(-c3ccc(N4CC5CC5C4)nc3)n2)n(C)c1=O (stereo partly drawn) [Compound 44, (2S)—N-(6′-(3-azabicyclo[3.1.0]hexan-3-yl)-2,3′-bipyridin-6-yl)-2-(3-methyl-2,6-dioxo-1-(2-oxopropyl)-2,3-dihydro-1H-purin-7(6H)-yl)propanamide] | 14
